Measurements: ChEMBL document CHEMBL1909046, “DrugMatrix in vitro pharmacology data”

target: T1, Alpha-1D adrenergic receptor (Homo sapiens, UniProt P25100); experiment: not given; type: cell membranes, HEK293, Membrane; conditions: hek293; further: in other assays of this panel Not Active means under 50% inhibition at 10 µM
T1 sequence (P25100 whole entry): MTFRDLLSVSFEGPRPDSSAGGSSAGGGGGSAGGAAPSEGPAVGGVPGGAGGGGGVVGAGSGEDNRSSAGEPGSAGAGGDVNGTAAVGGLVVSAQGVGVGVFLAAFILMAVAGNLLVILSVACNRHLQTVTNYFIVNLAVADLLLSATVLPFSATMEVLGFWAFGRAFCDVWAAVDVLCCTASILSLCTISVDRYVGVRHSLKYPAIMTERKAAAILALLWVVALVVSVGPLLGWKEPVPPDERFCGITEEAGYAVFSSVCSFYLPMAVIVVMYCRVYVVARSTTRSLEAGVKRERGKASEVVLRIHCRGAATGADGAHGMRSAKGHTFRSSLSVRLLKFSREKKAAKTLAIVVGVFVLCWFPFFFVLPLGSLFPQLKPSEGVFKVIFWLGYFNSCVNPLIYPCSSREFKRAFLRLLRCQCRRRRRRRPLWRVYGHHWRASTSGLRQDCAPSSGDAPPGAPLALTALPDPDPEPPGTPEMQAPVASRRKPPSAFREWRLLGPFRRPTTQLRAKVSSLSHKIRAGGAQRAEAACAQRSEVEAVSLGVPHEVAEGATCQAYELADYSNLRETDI

| SMILES | IC50 |
| --- | --- |
| CC(C)(S)[C@@H](N)C(=O)O [PENICILLAMINE] | Not Active |
| O=C(O)c1cn(C2CC2)c2cc(N3CCNCC3)c(F)cc2c1=O [CIPROFLOXACIN] | Not Active |
| C=C(C)[C@@H]1[C@H]2OC(=O)[C@@H]1[C@]1(O)C[C@H]3O[C@]34C(=O)O[C@H]2[C@]14C [PICROTOXININ] | Not Active |

test system: not listed separately; experiment: DRUGMATRIX: Calcium Channel Type L, Phenylalkylamine radioligand binding (ligand: [3H] (-)-Desmethoxyverapamil (D-888)); type: cell membranes, Rattus norvegicus, Wistar, Brain, Membrane; conditions: Not Active = under 50% inhibition at 10 µM

| SMILES | IC50 | Ki |
| --- | --- | --- |
| CC(C)(S)[C@@H](N)C(=O)O [PENICILLAMINE] | Not Active | Not Active |
| O=C(O)c1cn(C2CC2)c2cc(N3CCNCC3)c(F)cc2c1=O [CIPROFLOXACIN] | Not Active | Not Active |
| C=C(C)[C@@H]1[C@H]2OC(=O)[C@@H]1[C@]1(O)C[C@H]3O[C@]34C(=O)O[C@H]2[C@]14C [PICROTOXININ] | Not Active | Not Active |

target: Prostaglandin G/H synthase 1 (Homo sapiens, UniProt P23219); experiment: biochemical; type: tissue-based, Platelet; conditions: platelet;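 further: inhibition of COX-1 enzyme activity, with arachidonic acid supplied as substrate; in other assays of this panel Not Active means under 50% inhibition at 10 µM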
Sequence (P23219 whole entry): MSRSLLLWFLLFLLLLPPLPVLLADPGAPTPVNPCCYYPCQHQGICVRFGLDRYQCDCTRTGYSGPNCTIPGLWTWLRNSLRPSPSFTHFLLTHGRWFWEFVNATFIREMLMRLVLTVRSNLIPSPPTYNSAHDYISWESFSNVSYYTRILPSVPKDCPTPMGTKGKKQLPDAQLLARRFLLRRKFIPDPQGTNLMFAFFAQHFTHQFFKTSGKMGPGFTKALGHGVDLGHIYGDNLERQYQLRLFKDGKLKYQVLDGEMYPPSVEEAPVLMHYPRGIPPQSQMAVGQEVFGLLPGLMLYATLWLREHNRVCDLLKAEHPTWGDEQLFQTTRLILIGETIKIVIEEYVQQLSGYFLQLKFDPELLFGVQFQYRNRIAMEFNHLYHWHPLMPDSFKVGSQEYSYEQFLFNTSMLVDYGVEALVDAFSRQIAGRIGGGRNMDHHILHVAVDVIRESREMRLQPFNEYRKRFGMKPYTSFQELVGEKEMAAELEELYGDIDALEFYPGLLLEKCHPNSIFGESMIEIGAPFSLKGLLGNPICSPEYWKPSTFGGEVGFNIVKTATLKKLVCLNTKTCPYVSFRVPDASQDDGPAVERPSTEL

| SMILES | IC50 |
| --- | --- |
| CC(C)(S)[C@@H](N)C(=O)O [PENICILLAMINE] | Not Active |
| O=C(O)c1cn(C2CC2)c2cc(N3CCNCC3)c(F)cc2c1=O [CIPROFLOXACIN] | Not Active |
| C=C(C)[C@@H]1[C@H]2OC(=O)[C@@H]1[C@]1(O)C[C@H]3O[C@]34C(=O)O[C@H]2[C@]14C [PICROTOXININ] | Not Active |

target: D(3) dopamine receptor (Homo sapiens, UniProt P35462); experiment: DRUGMATRIX: Dopamine D3 radioligand binding (ligand: [3H] Spiperone); type: cell membranes, CHO, Membrane; conditions: cho
Sequence (P35462 whole entry): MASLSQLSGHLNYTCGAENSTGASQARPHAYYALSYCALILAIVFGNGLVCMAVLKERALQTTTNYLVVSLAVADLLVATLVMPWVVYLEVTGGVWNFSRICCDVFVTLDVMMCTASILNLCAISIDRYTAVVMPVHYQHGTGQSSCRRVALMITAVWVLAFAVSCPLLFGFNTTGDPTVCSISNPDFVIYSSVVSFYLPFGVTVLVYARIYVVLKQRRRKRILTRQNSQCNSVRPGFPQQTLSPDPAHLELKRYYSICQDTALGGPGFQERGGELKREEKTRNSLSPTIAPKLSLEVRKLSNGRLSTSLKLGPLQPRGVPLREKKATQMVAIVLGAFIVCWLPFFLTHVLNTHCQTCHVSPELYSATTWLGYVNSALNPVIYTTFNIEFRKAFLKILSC

| SMILES | IC50 |
| --- | --- |
| CC(C)(S)[C@@H](N)C(=O)O [PENICILLAMINE] | Not Active |
| O=C(O)c1cn(C2CC2)c2cc(N3CCNCC3)c(F)cc2c1=O [CIPROFLOXACIN] | Not Active |
| C=C(C)[C@@H]1[C@H]2OC(=O)[C@@H]1[C@]1(O)C[C@H]3O[C@]34C(=O)O[C@H]2[C@]14C [PICROTOXININ] | Not Active |

test system: not listed separately; experiment: DRUGMATRIX: Glutamate, NMDA, Agonism radioligand binding (ligand: [3H] CGP-39653); type: cell membranes, Rattus norvegicus, Wistar, Cerebral cortex, Membrane; conditions: Not Active = under 50% inhibition at 10 µM

| SMILES | IC50 | Ki |
| --- | --- | --- |
| CC(C)(S)[C@@H](N)C(=O)O [PENICILLAMINE] | Not Active | Not Active |
| O=C(O)c1cn(C2CC2)c2cc(N3CCNCC3)c(F)cc2c1=O [CIPROFLOXACIN] | Not Active | Not Active |
| C=C(C)[C@@H]1[C@H]2OC(=O)[C@@H]1[C@]1(O)C[C@H]3O[C@]34C(=O)O[C@H]2[C@]14C [PICROTOXININ] | Not Active | Not Active |

test system: not listed separately; experiment: DRUGMATRIX: Glutamate, NMDA, Phencyclidine radioligand binding (ligand: [3H] TCP); type: cell membranes, Rattus norvegicus, Wistar, Cerebral cortex, Membrane; conditions: Not Active = under 50% inhibition at 10 µM

| SMILES | IC50 | Ki |
| --- | --- | --- |
| CC(C)(S)[C@@H](N)C(=O)O [PENICILLAMINE] | Not Active | Not Active |
| O=C(O)c1cn(C2CC2)c2cc(N3CCNCC3)c(F)cc2c1=O [CIPROFLOXACIN] | Not Active | Not Active |
| C=C(C)[C@@H]1[C@H]2OC(=O)[C@@H]1[C@]1(O)C[C@H]3O[C@]34C(=O)O[C@H]2[C@]14C [PICROTOXININ] | Not Active | Not Active |

target: T2, 3-hydroxy-3-methylglutaryl-coenzyme A reductase (Homo sapiens, UniProt P04035); experiment: not given; parameters: species or system Escherichia coli; conditions: not given;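 further: enzyme inhibition assay of HMG-CoA reductase using radiolabeled [14C]HMG-CoA as substrate; in other assays of this panel Not Active means under 50% inhibition at 10 µM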
T2 sequence (P04035 whole entry): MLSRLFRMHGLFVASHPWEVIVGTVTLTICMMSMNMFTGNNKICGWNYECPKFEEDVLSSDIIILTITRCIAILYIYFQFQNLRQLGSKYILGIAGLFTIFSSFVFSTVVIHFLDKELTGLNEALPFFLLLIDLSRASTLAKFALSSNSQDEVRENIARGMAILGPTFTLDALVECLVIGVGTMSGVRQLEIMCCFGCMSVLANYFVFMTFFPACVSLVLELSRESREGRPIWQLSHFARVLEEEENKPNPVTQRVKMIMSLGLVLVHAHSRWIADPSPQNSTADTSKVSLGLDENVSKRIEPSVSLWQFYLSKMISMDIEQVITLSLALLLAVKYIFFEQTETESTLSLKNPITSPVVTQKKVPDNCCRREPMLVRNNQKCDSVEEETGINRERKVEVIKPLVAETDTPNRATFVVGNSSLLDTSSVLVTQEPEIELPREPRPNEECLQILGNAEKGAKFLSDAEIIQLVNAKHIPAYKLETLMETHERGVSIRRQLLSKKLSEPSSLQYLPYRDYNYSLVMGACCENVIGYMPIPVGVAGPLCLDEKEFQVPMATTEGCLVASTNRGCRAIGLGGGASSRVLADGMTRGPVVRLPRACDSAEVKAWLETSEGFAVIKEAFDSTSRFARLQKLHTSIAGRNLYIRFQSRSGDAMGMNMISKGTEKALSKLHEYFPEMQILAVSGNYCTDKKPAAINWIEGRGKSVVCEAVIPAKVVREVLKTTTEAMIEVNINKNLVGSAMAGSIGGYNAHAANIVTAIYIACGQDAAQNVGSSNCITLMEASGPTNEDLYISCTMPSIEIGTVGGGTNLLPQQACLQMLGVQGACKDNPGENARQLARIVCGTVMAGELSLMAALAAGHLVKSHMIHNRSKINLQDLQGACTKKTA

| SMILES | IC50 |
| --- | --- |
| CC(C)(S)[C@@H](N)C(=O)O [PENICILLAMINE] | Not Active |
| O=C(O)c1cn(C2CC2)c2cc(N3CCNCC3)c(F)cc2c1=O [CIPROFLOXACIN] | Not Active |
| C=C(C)[C@@H]1[C@H]2OC(=O)[C@@H]1[C@]1(O)C[C@H]3O[C@]34C(=O)O[C@H]2[C@]14C [PICROTOXININ] | Not Active |

target: Melanocortin receptor 3 (Homo sapiens, UniProt P41968); experiment: not given; type: cell membranes, Membrane; conditions: hek293; further: in other assays of this panel Not Active means under 50% inhibition at 10 µM
Sequence (P41968 whole entry): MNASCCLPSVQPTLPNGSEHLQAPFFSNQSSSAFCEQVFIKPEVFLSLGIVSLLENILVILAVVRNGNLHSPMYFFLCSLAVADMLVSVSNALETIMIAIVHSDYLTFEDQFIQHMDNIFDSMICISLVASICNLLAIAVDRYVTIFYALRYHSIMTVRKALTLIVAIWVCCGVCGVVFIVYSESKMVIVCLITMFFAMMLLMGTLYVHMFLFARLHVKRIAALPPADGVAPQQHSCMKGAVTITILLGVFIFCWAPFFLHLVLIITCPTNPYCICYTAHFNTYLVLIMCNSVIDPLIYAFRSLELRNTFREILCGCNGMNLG

| SMILES | IC50 |
| --- | --- |
| CC(C)(S)[C@@H](N)C(=O)O [PENICILLAMINE] | Not Active |
| O=C(O)c1cn(C2CC2)c2cc(N3CCNCC3)c(F)cc2c1=O [CIPROFLOXACIN] | Not Active |
| C=C(C)[C@@H]1[C@H]2OC(=O)[C@@H]1[C@]1(O)C[C@H]3O[C@]34C(=O)O[C@H]2[C@]14C [PICROTOXININ] | Not Active |

test system: not listed separately; experiment: DRUGMATRIX: Phosphodiesterase PDE4 enzyme inhibition (substrate: [3H]cAMP + cAMP); conditions: u-937; Not Active = under 50% inhibition at 10 µM

| SMILES | IC50 | Ki |
| --- | --- | --- |
| CC(C)(S)[C@@H](N)C(=O)O [PENICILLAMINE] | Not Active | Not Active |
| O=C(O)c1cn(C2CC2)c2cc(N3CCNCC3)c(F)cc2c1=O [CIPROFLOXACIN] | Not Active | Not Active |
| C=C(C)[C@@H]1[C@H]2OC(=O)[C@@H]1[C@]1(O)C[C@H]3O[C@]34C(=O)O[C@H]2[C@]14C [PICROTOXININ] | Not Active | Not Active |

target: Platelet-activating factor receptor (Homo sapiens, UniProt P25105); experiment: biochemical; type: tissue-based; conditions: platelet; further: in other assays of this panel Not Active means under 50% inhibition at 10 µM
Sequence (P25105 whole entry): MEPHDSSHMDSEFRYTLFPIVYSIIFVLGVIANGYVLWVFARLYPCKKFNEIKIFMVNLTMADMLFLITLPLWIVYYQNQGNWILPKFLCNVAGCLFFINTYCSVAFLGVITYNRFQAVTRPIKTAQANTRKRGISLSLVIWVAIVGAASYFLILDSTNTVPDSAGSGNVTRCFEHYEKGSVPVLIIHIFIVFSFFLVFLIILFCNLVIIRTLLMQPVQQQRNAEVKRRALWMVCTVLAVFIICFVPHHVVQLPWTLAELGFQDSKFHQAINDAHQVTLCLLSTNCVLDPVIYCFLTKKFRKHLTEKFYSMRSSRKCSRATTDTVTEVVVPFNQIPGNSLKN

| SMILES | IC50 |
| --- | --- |
| CC(C)(S)[C@@H](N)C(=O)O [PENICILLAMINE] | Not Active |
| O=C(O)c1cn(C2CC2)c2cc(N3CCNCC3)c(F)cc2c1=O [CIPROFLOXACIN] | Not Active |
| C=C(C)[C@@H]1[C@H]2OC(=O)[C@@H]1[C@]1(O)C[C@H]3O[C@]34C(=O)O[C@H]2[C@]14C [PICROTOXININ] | Not Active |

target: T3, Interstitial collagenase (Homo sapiens, UniProt P03956); experiment: not given; type: tissue-based, Rheumatoid synovial fibroblasts; conditions: not given
T3 sequence (P03956 whole entry): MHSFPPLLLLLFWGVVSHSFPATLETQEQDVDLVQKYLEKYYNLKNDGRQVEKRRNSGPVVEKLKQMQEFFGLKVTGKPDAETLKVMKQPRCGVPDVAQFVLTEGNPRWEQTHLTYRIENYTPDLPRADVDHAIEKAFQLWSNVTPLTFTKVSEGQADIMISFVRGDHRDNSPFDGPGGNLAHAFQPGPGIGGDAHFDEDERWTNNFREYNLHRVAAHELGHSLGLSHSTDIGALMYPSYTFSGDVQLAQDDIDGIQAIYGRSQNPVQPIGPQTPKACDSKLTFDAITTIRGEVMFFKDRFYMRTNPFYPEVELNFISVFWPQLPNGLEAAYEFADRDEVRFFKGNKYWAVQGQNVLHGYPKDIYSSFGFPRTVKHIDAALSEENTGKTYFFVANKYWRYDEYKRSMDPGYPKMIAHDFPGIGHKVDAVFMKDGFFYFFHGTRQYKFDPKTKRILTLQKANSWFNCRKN

| SMILES | IC50 |
| --- | --- |
| CC(C)(S)[C@@H](N)C(=O)O [PENICILLAMINE] | Not Active |
| O=C(O)c1cn(C2CC2)c2cc(N3CCNCC3)c(F)cc2c1=O [CIPROFLOXACIN] | Not Active |
| C=C(C)[C@@H]1[C@H]2OC(=O)[C@@H]1[C@]1(O)C[C@H]3O[C@]34C(=O)O[C@H]2[C@]14C [PICROTOXININ] | Not Active |

target: Mitogen-activated protein kinase 1 (Homo sapiens, UniProt P28482); experiment: DRUGMATRIX: Protein Serine/Threonine Kinase, ERK2 enzyme inhibition (substrate: Myelin Basic Protein); parameters: species or system Escherichia coli; conditions: Not Active = under 50% inhibition at 10 µM
Sequence (P28482 whole entry): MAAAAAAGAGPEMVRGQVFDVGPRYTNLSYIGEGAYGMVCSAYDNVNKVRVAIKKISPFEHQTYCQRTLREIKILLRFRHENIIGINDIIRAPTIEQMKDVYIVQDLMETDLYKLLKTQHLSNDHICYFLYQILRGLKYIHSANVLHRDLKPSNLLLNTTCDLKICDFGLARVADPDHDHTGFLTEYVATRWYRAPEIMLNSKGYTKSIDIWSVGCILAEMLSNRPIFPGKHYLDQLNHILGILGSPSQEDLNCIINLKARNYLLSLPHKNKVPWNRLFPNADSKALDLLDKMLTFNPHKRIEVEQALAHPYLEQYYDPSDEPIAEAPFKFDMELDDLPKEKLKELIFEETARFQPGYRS

| SMILES | IC50 |
| --- | --- |
| CC(C)(S)[C@@H](N)C(=O)O [PENICILLAMINE] | Not Active |
| O=C(O)c1cn(C2CC2)c2cc(N3CCNCC3)c(F)cc2c1=O [CIPROFLOXACIN] | Not Active |
| C=C(C)[C@@H]1[C@H]2OC(=O)[C@@H]1[C@]1(O)C[C@H]3O[C@]34C(=O)O[C@H]2[C@]14C [PICROTOXININ] | Not Active |

target: T4, Adenosine receptor A1 (Homo sapiens, UniProt P30542); experiment: not given; type: cell membranes, CHO, Membrane; conditions: cho
T4 sequence (P30542 whole entry): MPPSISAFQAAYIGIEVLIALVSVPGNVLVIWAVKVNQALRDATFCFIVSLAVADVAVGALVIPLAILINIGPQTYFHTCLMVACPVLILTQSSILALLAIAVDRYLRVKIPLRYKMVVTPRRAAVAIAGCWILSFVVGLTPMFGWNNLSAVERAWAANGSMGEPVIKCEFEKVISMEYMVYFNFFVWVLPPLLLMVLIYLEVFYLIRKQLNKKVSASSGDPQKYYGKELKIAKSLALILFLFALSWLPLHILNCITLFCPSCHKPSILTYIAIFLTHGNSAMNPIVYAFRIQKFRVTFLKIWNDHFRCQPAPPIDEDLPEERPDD

| SMILES | IC50 |
| --- | --- |
| CC(C)(S)[C@@H](N)C(=O)O [PENICILLAMINE] | Not Active |
| O=C(O)c1cn(C2CC2)c2cc(N3CCNCC3)c(F)cc2c1=O [CIPROFLOXACIN] | Not Active |
| C=C(C)[C@@H]1[C@H]2OC(=O)[C@@H]1[C@]1(O)C[C@H]3O[C@]34C(=O)O[C@H]2[C@]14C [PICROTOXININ] | Not Active |
